Assays:
human CYP2C9 = human CYP2C9 (Homo sapiens, UniProt P11712); assay: Biological Test Example 9: CYP2C9 inhibition (Invitrogen kit, fluorogenic substrate OOMR); type: in vitro ADME
human 11β-HSD1 = molecular target: T1, human 11β-HSD1 (Homo sapiens, UniProt P28845); type: biochemical
T1 construct: expressed in transfected cells; host or cells: CHO cells (microsomal preparation)
T1 sequence (P28845 whole entry): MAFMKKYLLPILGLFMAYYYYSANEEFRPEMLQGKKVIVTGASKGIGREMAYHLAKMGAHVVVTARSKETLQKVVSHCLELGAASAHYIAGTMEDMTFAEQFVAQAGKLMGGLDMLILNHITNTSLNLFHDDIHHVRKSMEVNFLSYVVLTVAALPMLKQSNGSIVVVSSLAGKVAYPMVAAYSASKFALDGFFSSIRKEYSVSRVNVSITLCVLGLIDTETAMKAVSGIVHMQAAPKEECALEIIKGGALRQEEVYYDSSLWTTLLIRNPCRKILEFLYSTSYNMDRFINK

Sequence of human CYP2C9 (P11712 whole entry): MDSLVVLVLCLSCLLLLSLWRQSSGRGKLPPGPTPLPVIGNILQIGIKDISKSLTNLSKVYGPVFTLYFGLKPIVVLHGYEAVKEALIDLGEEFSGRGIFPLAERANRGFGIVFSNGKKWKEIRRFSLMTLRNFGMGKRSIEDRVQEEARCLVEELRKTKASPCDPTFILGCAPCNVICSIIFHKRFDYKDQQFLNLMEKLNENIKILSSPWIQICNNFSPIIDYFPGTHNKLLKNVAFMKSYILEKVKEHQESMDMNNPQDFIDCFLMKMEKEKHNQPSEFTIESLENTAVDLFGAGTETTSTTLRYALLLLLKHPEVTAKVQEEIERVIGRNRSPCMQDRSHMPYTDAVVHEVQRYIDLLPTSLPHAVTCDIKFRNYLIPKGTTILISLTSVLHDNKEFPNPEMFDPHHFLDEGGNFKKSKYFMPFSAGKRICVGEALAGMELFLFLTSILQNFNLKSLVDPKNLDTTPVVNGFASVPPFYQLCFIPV

IC50 (human CYP2C9) [µM] | Compound | Shift (human 11β-HSD1)
28.5 | C[C@@H](c1ccc(-c2ccn(C3CC3)c(=O)c2)cc1)N1CCC(CC2CC2)(CC(C)(C)O)OC1=O (single isomer, unassigned) [93 Isomer 1] | 
 | C[C@@H](c1ccc(-c2cccn(C)c2=O)cc1)N1CC[C@](CCCO)(c2ccc(F)cc2)OC1=O [Example 42, (R)-6-(4-fluorophenyl)-6-(3-hydroxypropyl)-3-((S)-1-(4-(1-methyl-2-oxo-1,2-dihydropyridin-3-yl)phenyl)ethyl)-1,3-oxazinan-2-one] | 7.97
> 30 | C[C@@H](c1ccc(-c2ccn(C)c(=O)c2)cc1)N1CC[C@](CC(C)(C)O)(c2ccccc2)OC1=O [Example 48, (S)-6-(2-hydroxy-2-methylpropyl)-3-((S)-1-(4-(1-methyl-2-oxo-1,2-dihydropyridin-4-yl)phenyl)ethyl)-6-phenyl-1,3-oxazinan-2-one] | 
> 30 | CCn1cc(-c2ccc([C@H](C)N3CC[C@](CC(C)(C)O)(c4ccccc4)OC3=O)cc2)ccc1=O [Example 53, (S)-3-((S)-1-(4-(1-ethyl-6-oxo-1,6-dihydropyridin-3-yl)phenyl)ethyl)-6-(2-hydroxy-2-methylpropyl)-6-phenyl-1,3-oxazinan-2-one] | 

Reference: US8754076B2, “Cyclic inhibitors of 11beta-hydroxysteroid dehydrogenase 1” (Vitae Pharmaceuticals, Inc./Boehringer-Ingelheim, priority 2008, dated 2014)
